Columns and labels:
[1] = test system: Bid protein in HT-29 cells; assay: Western blot, Bid protein; type: cell-based, human; settings: for Bid protein expression up-regulation: 200 μM, 24 h, vs untreated group
Experimental: Total protein was isolated from HT-29 cells by using lysis buffer. Cells were collected by centrifugation at 1,500 rpm for 5 min. After that, cell pellets were re-suspended with RIPA lysis buffer consisting of 1 mM protease inhibitor cocktail (PIC; Sigma-Aldrich; P8340) and lysed at […] for 1 h. After incubation, the protein was obtained by centrifugation at 13,000 × g for 15 min and kept for − 80 °C until analysis. Also, mitochondrial and cytosolic fractions were obtained by using fraction lysis buffer as described previously[50] with minor modifications. Lysed cells were kept in ice for 10 min and then cells were triturated by a 27 gauge syringe (25 strokes) to become homogeneous followed by centrifugation at 13,000 × g for 30 min. The collected supernatant was the cytosolic fraction. After the pellet was washed with lysis buffer and it was dissolved in lysis buffer for protein quantification. Protein concentration was measured by Pierce BCA protein assay kit (Thermo Scientific Laboratories, Rockford, USA) according to the manufacturer instructions. Equal amounts of proteins from all samples were separated by 10% SDS–polyacrylamide gel electrophoresis (SDS-PAGE) and electrotransferred. Polyvinylidene difluoride (PVDF) membrane was blocked with 5% skimmed milk for 1 h, followed by incubation with primary (Cytochrome-c: sc-13560; Bid: sc-11423; COX-IV: #4850; 1:2000; GAPDH: #3683; 1:10,000) and HRP-conjugated secondary (Got Anti-mouse IgG: 20102; Got anti-rabbit IgG: 20202: 1:10,000) antibodies against specific proteins. The protein signals were detected by Enhanced Chemiluminescence (ECL) detection kit (Amersham Piscataway, NJ, USA). The protein expression levels were analyzed by measuring the intensity of the band from scanned films using Image-J software. GAPDH and COX-IV served as a housekeeping protein to normalize the expression levels.

[2] = test system: Colorectal cancer HT-29 cells; assay: MTT cell viability assay, HT-29; type: cell-based; settings: Homo sapiens; for viability at 125 µM: 24 h treatment, read-out: relative percentage viability of HT-29 cells; for IC50: 24 h, MTT, read-out: HT-29 cells inhibitory (IC50) dose
Experimental: Human colorectal cancer (HT-29) and mouse embryonic fibroblast (3T3) cells were obtained from the American Type Culture Collection Centre (ATCC, VA, USA). Both cells were grown in Dulbecco Modified Eagle's Medium (DMEM, HiMedia, India) supplemented with 10% heat-inactivated fetal bovine serum (FBS), penicillin (50 units/mL), and streptomycin (50 µg/mL) and were cultured at 37 °C, 5% CO2 in a humidified atmosphere.
Cytotoxicity of the identified those DKPs were determined by cell viability study with the MTT (3-(4, 5-dimethylthiazol-2yl)-2, 5-diphenyltetrazolium bromide) reduction assay[49]. Briefly, 1.5 × 10^4 cells/well (HT-29) and 1.7 × 10^4 cells/well (3T3) cells were seeded into 96-well plates. They were incubated for 24 h at 37 °C with 5% CO2 and 95% relative humidity atmosphere. After 24 h, identified DKPs were added different concentrations (12.5 to 200 µM) into culture media in triplicates and re-incubated under the same culture conditions mentioned above. The final concentration of DMSO solution was 0.25% in the cells served as a negative control. Then culture media was removed from the plates, and 100 μL of freshly prepared MTT solution in serum-free medium (5 mg/mL) was added to each well and further incubated for 4 h. After that, 150 μL of DMSO solution was added under dark conditions and kept for 30 min at room temperature. The absorbance of the formazan product was measured at 595 nm in the microplate reader (Imark, Biorad). The percentage viability of the cells was measured by using the formula: Cell viability (%) = [(test/control) × 100)].
Results were expressed as mean ± standard deviation (SD). Data were analyzed one-way analysis of variance (ANOVA), followed by Student’s two-tailed t-test for comparison between two groups and Dunnett’s t-test was used when the data involved three or more groups. A value of p < 0.05 was considered statistically significant. All statistical analyses and inhibitory concentration (IC50) were determined by graph-pad prism statistical software (San Diego, CA, USA).

zebrafish (ABiC) embryos = assay: Zebrafish embryo developmental toxicity assay; type: in vivo, zebrafish (Danio rerio); design: unit not given here
Experimental: Laboratory animal care principles were followed and experimental procedures were conducted following guidelines established by the Institutional Animal Care, and Use Committee (IACUC), and every effort was made to minimize suffering. This study was approved by the IACUC of the Kaohsiung Medical University, Kaohsiung, Taiwan (Approval No: KMU-IACUC-105213). The wild-type (ABiC strain) zebrafish (Danio rerio) were maintained at 28 °C on a 14 h/10 h light/dark cycle under standard circulating water systems and fed with hatched brine shrimp. Embryos were obtained by natural mating male fish with female fish (2:3) in a water tank and eggs were maintained in a plastic Petri dish containing ad libitum water. After 4 h incubation, embryos were randomly divided into five experimental groups (control (without treatment), sham/vehicle control (DMSO), and three treatment groups for each cyclic dipeptide. Each group had 45 embryos per test dosage. All DKPs were tested at different doses varied from 50, 100 and 200 μM, respectively. After drug treatment, embryos were maintained in an incubator at 28 °C. The survival rate and embryonic developmental changes were observed by using an inverted microscope every 24 h interval for 96 h (Nikon Eclipse TE2000-U, Tokyo, Jap).

| Structure (SMILES) | Bid protein expression up-regulation [1] | viability at 125 µM [2] | IC50 [2] | Mean survival rate of zebrafish embryos (zebrafish (ABiC) embryos; 24 hpf, 50 μM) | Mean survival rate of zebrafish embryos (zebrafish (ABiC) embryos; 24 hpf, 100 μM) | Mean survival rate of zebrafish embryos (zebrafish (ABiC) embryos; 24 hpf, 200 μM) | Mean survival rate of zebrafish embryos (zebrafish (ABiC) embryos; 48 hpf, 50 μM) | Mean survival rate of zebrafish embryos (zebrafish (ABiC) embryos; 48 hpf, 100 μM) | Mean survival rate of zebrafish embryos (zebrafish (ABiC) embryos; 48 hpf, 200 μM) | Mean survival rate of zebrafish embryos (zebrafish (ABiC) embryos; 72 hpf, 50 μM) | Mean survival rate of zebrafish embryos (zebrafish (ABiC) embryos; 72 hpf, 100 μM) | Mean survival rate of zebrafish embryos (zebrafish (ABiC) embryos; 72 hpf, 200 μM) | Mean survival rate of zebrafish embryos (zebrafish (ABiC) embryos; 96 hpf, 50 μM) | Mean survival rate of zebrafish embryos (zebrafish (ABiC) embryos; 96 hpf, 100 μM) | Mean survival rate of zebrafish embryos (zebrafish (ABiC) embryos; 96 hpf, 200 μM) | Bid protein expression level ([1]; 100 μM, vs control and 200 μM) |
| --- | --- | --- | --- | --- | --- | --- | --- | --- | --- | --- | --- | --- | --- | --- | --- | --- |
| CC(C)C[C@@H]1NC(=O)[C@@H]2CCCN2C1=O [DKP-1, cyclo (L-Pro-L-Leu)] | 1.32 fold | 36.3 ± 5.08% | 100 µM | 70.88 ± 3.44 | 73.33 ± 5.96 | 75 ± 5.77 | 70.88 ± 5.96 | 71.11 ± 1.54 | 73.33 ± 3.32 | 71.11 ± 3.44 | 71.11 ± 5.55 | 68.88 ± 6.91 | 66.66 ± 5.96 | 71.11 ± 9.10 | 66.66 ± 5.96 |  |
| CC(C)[C@@H]1NC(=O)[C@@H]2CCCN2C1=O [DKP-2, cyclo (L-Pro-L-Val)] | 1.21 fold | 42.3 ± 2.25% | 118 µM | 77.77 ± 5.41 | 82.22 ± 4.41 | 75.55 ± 3.44 | 80 ± 5.96 | 80 ± 5.96 | 75.55 ± 3.44 | 68.88 ± 3.44 | 77.33 ± 3.44 | 71.11 ± 6.88 | 66.66 ± 5.96 | 71.11 ± 9.10 | 66.66 ± 5.96 |  |
| O=C1N[C@@H](Cc2ccccc2)C(=O)N2CCC[C@@H]12 [DKP-3, cyclo (L-Pro-L-Phe)] | 1.76 fold | 34.7 ± 4.03% | 85.2 µM | 80 ± 5.96 | 80 ± 5.96 | 75.55 ± 4.12 | 80 ± 5.96 | 80 ± 5.96 | 75.55 ± 4.12 | 77.77 ± 9.10 | 80 ± 5.96 | 73.33 ± 5.96 | 68.88 ± 6.88 | 80 ± 5.96 | 69.22 ± 12 |  |
| O=C1N[C@@H](Cc2ccc(O)cc2)C(=O)N2CCC[C@@H]12 [DKP-4, cyclo (L-Pro-L-Tyr)] |  | 42.1 ± 2.94% | 98 µM | 79 ± 3.96 | 82 ± 2.96 | 71.55 ± 5.12 | 79 ± 3.96 | 81 ± 2.96 | 70.34 ± 3.33 | 75.51 ± 3.32 |  | 70.54 ± 3.51 | 71.11 ± 2.44 | 79.3 ± 2.77 | 68.24 ± 5.89 | increased the expression level of Bid |

From article PMC7426938, “Induction of mitochondria-mediated apoptosis and suppression of tumor growth in zebrafish xenograft model by cyclic dipeptides identified from Exiguobacterium acetylicum” (Scientific Reports, 2020)
